Several values for one entry are separate records, joined by “and”; a condition that tells them apart may be missing. Identical values can stand only once.
Columns and labels:
APJ = target: T1, APJ (Homo sapiens, UniProt P35414); assay: APJ DiscoveRx PathHunter β-arrestin assay (antagonism of apelin-13); format: cell-based; parameters: host or cells: Angiotensin II receptor-like 1 (AGTRL-1) Cell Line (PathHunter); conditions: for IC50: β-arrestin assay, n = 4 unless noted in parentheses, read-out: APJ Potency IC50 (μM) Ave. ± S.E.M.
T1 sequence (P35414 1-380): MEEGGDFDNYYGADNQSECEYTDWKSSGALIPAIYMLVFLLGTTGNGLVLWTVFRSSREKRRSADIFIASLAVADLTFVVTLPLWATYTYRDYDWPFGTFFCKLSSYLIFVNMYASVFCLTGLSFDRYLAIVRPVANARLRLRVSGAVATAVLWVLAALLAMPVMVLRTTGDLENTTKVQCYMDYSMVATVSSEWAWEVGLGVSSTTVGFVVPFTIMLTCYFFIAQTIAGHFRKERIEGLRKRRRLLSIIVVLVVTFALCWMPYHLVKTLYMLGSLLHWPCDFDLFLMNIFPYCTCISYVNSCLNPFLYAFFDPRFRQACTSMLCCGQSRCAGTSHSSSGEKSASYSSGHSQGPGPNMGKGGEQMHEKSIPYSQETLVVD
Experimental: The assay was incubated for 90 mins at room temperature, and then developed with 3 μL of detection reagent (PathHunter Detection Reagents (DiscoveRx, Cat#93-0001)) for 60 mins and luminescence read on a Perkin Elmer ViewLux.
(§1) All assays in Table 2, with the exception of the […] counterscreen, utilize the DiscoveRx PathHunter® β-arrestin assay technology. Unlike imaging or other second messenger assays, the DiscoveRx β-arrestin assay allows for a direct measure of GPCR activation by detection of β-arrestin binding to the APJ, and in the case of the counterscreen, the AT1 receptor. […] In cells that stably express these fusion proteins, ligand stimulation results in the interaction of β-arrestin and the ProLink-tagged GPCR, forcing the complementation of the two β-galactosidase fragments and resulting in the formation of a functional enzyme that converts substrate to detectable luminescent signal.
Assay was incubated for 90 mins at room temperature, and then developed with 3 μL of detection reagent for 60 mins and luminescence read on a Perkin Elmer ViewLux. Initial actives were retested in duplicate at the 20 μM test concentration, and reconfirmed hits retested in full dose-response for compounds from resupplied MLSMR DMSO stock solutions.

[1] = target: T2, Angiotensin receptor 1 (AT1) (Homo sapiens, UniProt P30556); assay: AT1 DiscoveRx PathHunter β-arrestin counterscreen (antagonism of angiotensin II); format: cell-based; conditions: β-arrestin assay, n = 4 unless noted in parentheses; read-out: AT1 Potency IC50 (μM) Ave. ± S.E.M.
T2 construct: host or cells: Angiotensin receptor 1 (AT1) Cell Line (PathHunter)
T2 sequence (P30556 1-359): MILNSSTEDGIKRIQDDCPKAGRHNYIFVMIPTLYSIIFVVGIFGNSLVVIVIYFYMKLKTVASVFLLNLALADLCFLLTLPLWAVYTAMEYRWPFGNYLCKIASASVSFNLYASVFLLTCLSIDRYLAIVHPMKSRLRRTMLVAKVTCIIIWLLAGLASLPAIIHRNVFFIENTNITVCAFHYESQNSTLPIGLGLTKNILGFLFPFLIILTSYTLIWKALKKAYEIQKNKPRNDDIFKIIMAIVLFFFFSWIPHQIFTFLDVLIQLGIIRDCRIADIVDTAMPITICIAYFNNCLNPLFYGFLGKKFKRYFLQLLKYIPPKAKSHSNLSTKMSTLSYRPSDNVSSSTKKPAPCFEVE
Excerpt: as §1
Next, varying volumes of stock test compounds in DMSO were transferred to each well to achieve appropriate dose response concentrations and range. DMSO was backfilled into each test compound well to a total volume of 80 nL to achieve equal concentration of DMSO in all wells. This was followed by an addition of 1 μL of 300 nM reference agonist, Angiotensin II, to the negative and test compound wells, and 1 μL of assay media to positive control wells. The assay was incubated for 90 mins at room temperature, and then developed with 3 μL of detection reagent for 60 mins and luminescence read on a Perkin Elmer ViewLux.

Row | Structure (SMILES) | SI = Selectivity Index: (IC50 AT1)/(IC50 APJ) (APJ) | IC50 (APJ) | IC50 [1] [µM]
1 | O=C(Oc1coc(CSc2ncccn2)cc1=O)c1ccc(Cl)c([N+](=O)[O-])c1 [Compound 2] | >13 | 6.2 ± 0.77 µM | 
2 | Cc1ccc(C(=O)Oc2coc(CSc3ncccn3)cc2=O)cc1[N+](=O)[O-] [Compound 3] | >11 and >7.2 | 7.25 µM and 10.9 µM | 
3 | O=C(Oc1coc(CSc2ncccn2)cc1=O)c1cccc([N+](=O)[O-])c1 [Compound 4] |  | 75.7 µM | 
4 | O=C(Oc1coc(CSc2ncccn2)cc1=O)c1ccc(Cl)cc1 [Compound 5] |  | 54.5 µM | 
5 | N#Cc1ccc(C(=O)Oc2coc(CSc3ncccn3)cc2=O)cc1 [Compound 7] | >12 and >8 | 6.59 µM and 9.77 µM | > 79
6 | O=C(Oc1coc(CSc2ncccn2)cc1=O)c1ccc(C(F)(F)F)cc1 [Compound 8] |  | 29 µM | 
7 | O=C(Oc1coc(CSc2ncccn2)cc1=O)c1ccc(Br)cc1 [Compound 9] |  | 18.2 µM | 
8 | O=C(Oc1coc(CSc2ncccn2)cc1=O)c1cc([N+](=O)[O-])ccc1Cl [Compound 21] |  | 51 µM | 60.1 ± 1.35
9 | Cc1c(C(=O)Oc2coc(CSc3ncccn3)cc2=O)cccc1[N+](=O)[O-] [Compound 22] |  | 72.2 µM | 
10 | Cc1ccnc(SCc2cc(=O)c(OC(=O)c3ccc(C)c([N+](=O)[O-])c3)co2)n1 [Compound 30] | >17 | 4.7 µM | 
11 | Cc1ccnc(SCc2cc(=O)c(OC(=O)c3cccc([N+](=O)[O-])c3)co2)n1 [Compound 31] |  | 59.2 µM | 
12 | Cc1ccnc(SCc2cc(=O)c(OC(=O)c3ccc([N+](=O)[O-])cc3)co2)n1 [Compound 33] | >25 and >23 | 3.11 µM and 4.32 µM | 
13 | Cc1ccnc(SCc2cc(=O)c(OC(=O)c3ccc(C#N)cc3)co2)n1 [Compound 34] | >9 and >7 | 8.51 µM and 11.5 µM | 
14 | Cc1ccnc(SCc2cc(=O)c(OC(=O)c3ccc(C(F)(F)F)cc3)co2)n1 [Compound 35] |  | 20.6 µM | 
15 | Cc1ccnc(SCc2cc(=O)c(OC(=O)c3ccc(S(=O)(=O)N4CCCC4)cc3)co2)n1 [Compound 39] |  | 39.9 ± 8.65 µM | 
16 | Cc1ccnc(SCc2cc(=O)c(OC(=O)c3cc(Cl)ccc3[N+](=O)[O-])co2)n1 [Compound 40] |  | 58.8 µM | 
17 | Cc1ccnc(SCc2cc(=O)c(OC(=O)c3cc([N+](=O)[O-])ccc3Cl)co2)n1 [Compound 41] |  | 74.1 µM | 
18 | Cc1ccnc(SCc2cc(=O)c(OC(=O)c3ccccc3Cl)co2)n1 [Compound 42] |  |  | > 79
19 | Cc1cccc(C(=O)Oc2coc(CSc3nccc(C)n3)cc2=O)c1 [Compound 44] |  | > 79 µM | > 79
20 | Cc1ccnc(SCc2cc(=O)c(OC(=O)c3ccccc3C)co2)n1 [Compound 46] |  | > 79 µM | > 79
21 | Cc1cc(C)nc(SCc2cc(=O)c(OC(=O)c3ccc(Cl)c([N+](=O)[O-])c3)co2)n1 [Compound 49] | >15 | 5.45 ± 1.47 µM | > 79

Row | Structure (SMILES) | SI = Selectivity Index: (IC50 AT1)/(IC50 APJ) (APJ) | IC50 (APJ) | IC50 [1] [µM]
22 | Cc1cc(C)nc(SCc2cc(=O)c(OC(=O)c3ccc(C)c([N+](=O)[O-])c3)co2)n1 [Compound 50] | >3 | 25.3 ± 5.8 µM | > 79
23 | Cc1cc(C)nc(SCc2cc(=O)c(OC(=O)c3ccc(S(=O)(=O)N(C)C)cc3)co2)n1 [Compound 51] |  | > 79 µM | > 79
24 | Cc1cc(C)nc(SCc2cc(=O)c(OC(=O)c3cc(Cl)ccc3[N+](=O)[O-])co2)n1 [Compound 52] |  | > 79 µM | 49.7 ± 6.74
25 | Cc1cc(C)nc(SCc2cc(=O)c(OC(=O)c3cc([N+](=O)[O-])ccc3Cl)co2)n1 [Compound 53] |  | 44.5 µM | 49.7 ± 6.74
26 | Cc1cc(C)nc(SCc2cc(=O)c(OC(=O)c3cccc([N+](=O)[O-])c3C)co2)n1 [Compound 54] |  | > 79 µM | > 79
27 | Cc1cc(C)nc(SCc2cc(=O)c(OC(=O)c3ccc(-c4nccs4)cc3)co2)n1 [Compound 55] |  | > 79 µM | > 79
28 | O=c1cc(CSc2ccccc2)occ1O [Compound 56] |  | > 79 µM | > 79
29 | O=c1cc(CSc2ccc(F)cc2)occ1O [Compound 57] |  | > 79 µM | > 79
30 | O=c1cc(CSc2ncccn2)occ1O [Compound 58] |  | > 79 µM | > 79
31 | O=C(Oc1coc(CSc2ccc(Cl)cc2)cc1=O)c1ccc(Cl)c([N+](=O)[O-])c1 [Compound 63] | >17 | 4.53 ± 0.66 µM | > 79
32 | Cc1ccnc(SCc2cc(=O)c(OCc3ccccc3)co2)n1 [Compound 66] |  | > 79 µM | > 79
33 | Cc1ccnc(SCc2cc(=O)c(OCc3ccc(Cl)c([N+](=O)[O-])c3)co2)n1 [Compound 67] |  | > 79 µM | > 79
34 | Cc1ccnc(SCc2cc(=O)c(OC(=O)C(C)(C)C)co2)n1 [Compound 68] |  | > 79 µM | > 79
35 | Cc1cc(C)nc(SCc2cc(=O)c(OS(=O)(=O)c3ccccc3)co2)n1 [Compound 71] |  | > 79 µM | > 79
36 | Cc1cc(C)nc(SCc2cc(=O)c(OS(=O)(=O)c3ccc([N+](=O)[O-])cc3)co2)n1 [Compound 72] |  | > 79 µM | > 79
37 | Cc1ccnc(SCc2cc(=O)c(NC(=O)c3ccccc3)co2)n1 [Compound 73] |  | > 79 µM | > 79
38 | Cc1ccnc(SCc2cc(=O)c(NC(=O)c3ccc([N+](=O)[O-])cc3)co2)n1 [Compound 74] |  | > 79 µM | > 79
39 | Cc1ccnc(SCc2cc(=O)c(OC(=O)c3ccco3)co2)n1 [Compound 75] |  | > 79 µM | > 79
40 | Cc1ccnc(SCc2cc(=O)c(OC(=O)c3ccsc3)co2)n1 [Compound 76] |  | > 79 µM | > 79
41 | Cc1ccnc(SCc2cc(=O)c(OC(=O)c3ccc([N+](=O)[O-])o3)co2)n1 [Compound 77] |  | > 79 µM | > 79
42 | Cc1ccnc(SCc2cc(=O)c(OC(=O)c3cnco3)co2)n1 [Compound 78] |  | > 79 µM | > 79
